Source: PubChem BioAssay AID1648 (Sanford-Burnham Center for Chemical Genomics, 2009)
Active and inactive are the calls of the source. The rule behind the calls is not given here.

biological target: Serine/threonine-protein kinase mTOR (Homo sapiens) (UniProt P42345); assay: binders of mTOR FRB domain, biophysical, NMR (AID 1648); details: NMR binding to FRB domain, chemical shift
Sequence (P42345 2015-2114): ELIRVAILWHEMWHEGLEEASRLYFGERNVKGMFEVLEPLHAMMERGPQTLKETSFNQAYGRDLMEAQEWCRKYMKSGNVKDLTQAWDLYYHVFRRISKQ

SMILES | Kd
CC(=O)NC(NC(C)=O)c1ccccc1 | > 4 mM (inactive)
C/C=C(/C)C(=O)O[C@@H]1Cc2c(ccc3ccc(=O)oc23)OC1(C)C | > 4 mM (inactive)
NC(=O)C(=O)Nc1nc(-c2ccccc2)cs1 | > 4 mM (inactive)
NC1Cc2ccccc2C1 | > 4 mM (inactive)
O=C(Nc1cnc2ccccn2c1=O)c1ccc(F)cc1 | > 4 mM (inactive)
Cc1cccc(C)c1NC(=O)/C=C/C(=O)O | > 4 mM (inactive)
Cc1occc1C(=O)Nc1cc(C(C)(C)C)on1 | > 4 mM (inactive)
O=C1Cc2ccccc2N1c1ccccc1 | > 4 mM (inactive)
N[C@@H](Cc1ccc(O)c(O)c1)C(=O)O | > 4 mM (inactive)
Nc1n[nH]c(=S)n1-c1ccccc1 | > 4 mM (inactive)
COc1ccc(/C=C2\NC(=S)N(C)C2=O)cc1O | > 4 mM (inactive)
N#CC(O[C@@H]1O[C@H](CO[C@@H]2O[C@H](CO)[C@@H](O)[C@H](O)[C@H]2O)[C@@H](O)[C@H](O)[C@H]1O)c1ccccc1 (stereo not given in full) | > 4 mM (inactive)
CC(C)c1ccc2c(c1O)CC[C@H]1C3=C(CC[C@]21C)C(=O)OC3 | > 4 mM (inactive)
Cc1oc(-c2ccccc2)nc1CCO | > 4 mM (inactive)
COc1ccc(Cc2nnc3c4cnn(C)c4ncn23)cc1 | > 4 mM (inactive)
CN(C)c1ccc(N2C(=O)CCC2=O)cc1 | > 4 mM (inactive)
Nc1cccnc1N1CCOCC1 | > 4 mM (inactive)
CCCCCC1C(=O)CCC1CC(=O)OC (stereo not given) | > 4 mM (inactive)
O=C(O)c1cc2ccccc2s1 | > 4 mM (inactive)
Cc1[nH]c2ccccc2c1C=Nn1cncn1 | > 4 mM (inactive)
C=C1C(=O)O[C@@H]2C[C@@]3(C)CCC[C@H](C)C3=C[C@H]12 | > 4 mM (inactive)
Cc1cc(/C=N/O)nc(=O)[nH]1 | > 4 mM (inactive)
O=C(NC1CCS(=O)(=O)C1)c1ccccc1 (stereo not given) | > 4 mM (inactive)

SMILES | Kd
CN1C(=O)CC(=O)N(C)c2ccccc21 | > 4 mM (inactive)
Cc1cc(NC(=O)c2ocnc2C)no1 | > 4 mM (inactive)
Cc1cc(O)c(C=O)c(O)c1C(=O)O | > 4 mM (inactive)
CCOc1ccc(C(=O)c2ccc(O)c(O)c2O)cc1 | > 4 mM (inactive)
Nc1ccc2c(c1)CCC2=O | > 4 mM (inactive)
O=C(O)CC1Sc2ccccc2NC1=O (stereo not given) | > 4 mM (inactive)
O=C(O)C1CC(=O)N(C2Cc3ccccc3C2)C1 (stereo not given) | > 4 mM (inactive)
C[C@H]1C[C@@H](O)[C@]2(O)[C@@]13CC(=O)OC[C@@]2(C)[C@](C)(O)C(=O)C3 | > 4 mM (inactive)
COC(=O)Nc1nc2c(C)cccc2s1 | > 4 mM (inactive)
Cc1cccc(NS(=O)(=O)c2cccs2)n1 | > 4 mM (inactive)
Cc1cc(NC(=O)NCCCSc2nncn2C)no1 | > 4 mM (inactive)
COc1ccc(-c2cc(=O)c3c(OC)c(OC)c(OC)c(OC)c3o2)cc1 | > 4 mM (inactive)
Cc1nn(C)c(C)c1NC(=S)NC1CCCC1 | > 4 mM (inactive)
O=c1[nH]c(=S)[nH]c2c1CCC2 | > 4 mM (inactive)
CC(=O)N(c1ccccc1)C1C=CS(=O)(=O)C1 (stereo not given) | > 4 mM (inactive)
O=C(c1cnsn1)N1CCN(c2ccccc2)CC1 | > 4 mM (inactive)
CC(=O)Oc1ccc2c(c1)c(C(C)=O)c(C)n2C | > 4 mM (inactive)
O=C(NC(=S)NC1CCSC1=O)c1ccco1 (stereo not given) | > 4 mM (inactive)
CC(=O)O[C@@H]1CC[C@@]2(C)C(CC[C@]3(C)C2CC=C2C4CC(C)(C)CC[C@]4(C(=O)O)CC[C@]23C)C1(C)C (stereo not given in full) | > 4 mM (inactive)
OC[C@@H]1CCCN2CCCC[C@H]12 | > 4 mM (inactive)
c1nnc2c3c4c(sc3ncn12)CCCC4 | > 4 mM (inactive)
CC1O[C@@H](Oc2c(-c3ccc(O)c(O)c3)oc3cc(O)cc(O)c3c2=O)[C@H](O)[C@H](O)[C@H]1O (stereo not given in full) | > 4 mM (inactive)
Cc1ccc(-c2nnc3sc(-c4ccncc4)nn23)cc1 | > 4 mM (inactive)

SMILES | Kd
CSc1ccccc1NC(=O)c1ccc(C)o1 | > 4 mM (inactive)
Nc1ccccc1N=C1CNC(=O)C1 | > 4 mM (inactive)
CC1=CCc2c(cc3oc(C)cc(=O)c3c2O)OC1 | > 4 mM (inactive)
C[C@]12CCC(=O)C=C1CCC1C2C(=O)C[C@@]2(C)C1CC[C@]2(O)C(=O)CO (stereo not given in full) | > 4 mM (inactive)
c1ccc(Cn2c(Nn3cnnc3)nc3ccccc32)cc1 | > 4 mM (inactive)
NC(=O)C(=O)NCc1ccc(Cl)cc1 | > 4 mM (inactive)
Cc1c(O)c(O)cc2c1CC=C1[C@@]2(C)CC[C@@]2(C)C3C[C@](C)(C(=O)O)CC[C@]3(C)CC[C@]12C (stereo not given in full) | > 4 mM (inactive)
Cc1cc(C)n(-c2cccc3cccnc23)n1 | > 4 mM (inactive)
CC(C)c1c(O)ccc2c1CCC1[C@@](C)(C=O)CCC[C@]21C (stereo not given in full) | > 4 mM (inactive)
COc1cc([C@@H]2c3cc4c(cc3C(OC3O[C@@H]5COC(C)O[C@H]5[C@H](O)[C@H]3O)C3COC(=O)[C@@H]32)OCO4)cc(OC)c1O (stereo not given in full) | > 4 mM (inactive)
O=C(CC1CCCCC1)N1CCN(c2ccccn2)CC1 | > 4 mM (inactive)
CN1C(=O)/C(=C\c2ccc[nH]2)SC1=S | > 4 mM (inactive)
C=C(C)CSc1nc2nc(C)cc(C)n2n1 | > 4 mM (inactive)
Cn1c(O)c(C2=NC(=S)NC2=O)c2ccccc21 | > 4 mM (inactive)
Cc1nnc(NCCO)[nH]c1=O | > 4 mM (inactive)
Cc1nnc(SCC(N)=O)c2ccccc12 | > 4 mM (inactive)
CC(=O)c1cccc(NC(=O)N2CCc3ccccc3C2)c1 | > 4 mM (inactive)
Nc1cc(C(=O)N2CCCC2)cc(C(=O)N2CCCC2)c1 | > 4 mM (inactive)
CSc1nc(O)cc(=O)[nH]1 | > 4 mM (inactive)
CC(=O)OC1CCC23C(=O)OC45CCC(C6=CC(=O)OC6)C4(C)CCC2C5CCC3(O)C1 (stereo not given) | > 4 mM (inactive)
Cc1cc(C)n(/N=C\c2cccs2)c(=O)c1C(N)=O | > 4 mM (inactive)
O=C(O)c1ccccc1C(=O)NCC1CCCO1 (stereo not given) | > 4 mM (inactive)
COC1=CC(=O)C[C@@H](C)[C@]12Oc1c(Cl)c(OC)cc(OC)c1C2=O | > 4 mM (inactive)

SMILES | Kd
C/C=C/C=N/NC(=O)c1ccc(=O)n(C)c1 | > 4 mM (inactive)
CCOC(=O)C1CCN(Cc2ccccc2)CC1 | > 4 mM (inactive)
CS(=O)(=O)N1CCN(C(=O)c2ccccc2F)CC1 | > 4 mM (inactive)
CN(C)Cc1c(N)cccc1O | > 4 mM (inactive)
CC(=O)CC(=O)N1C(O)CC[N+]1(C)C (stereo not given) | > 4 mM (inactive)
OCc1csc(-c2ccccc2)n1 | > 4 mM (inactive)
Cc1ccc2c(c1)=C(c1sc(N)nc1O)C(=O)N=2 | > 4 mM (inactive)
CN1CCN(c2ccc(CN)cc2)CC1 | > 4 mM (inactive)
CCCCC(Nc1n[nH]c(=O)[nH]c1=O)C(=O)O (stereo not given) | > 4 mM (inactive)
O=C(O)Cn1c(=O)sc2ccccc21 | > 4 mM (inactive)
Cc1cc(=O)[nH]c2ccccc12 | > 4 mM (inactive)
NC(=O)CNC(=O)c1ccc2ccccc2n1 | > 4 mM (inactive)
CC(O)c1nc2ccccc2[nH]1 (stereo not given) | > 4 mM (inactive)
CC(C)(C)c1ccc(SCC(N)=O)cc1 | > 4 mM (inactive)
COc1cc(NC(=O)c2ccccc2)c(C)cc1N | > 4 mM (inactive)
COC1=CC(=O)C=C(OC)C1=O | > 4 mM (inactive)
NC(=O)CN1C(=O)c2cccc3cccc1c23 | > 4 mM (inactive)
CC(=O)O[C@H]1CCC2(C)C3=C(CCC2C1(C)C)[C@@]1(C)CC[C@@H](C(C)CCC=C(C)C)[C@]1(C)CC3 (stereo not given in full) | > 4 mM (inactive)
CN1C(=O)C2C=CC1C1C(=O)N(c3ccccc3)C(=O)C21 (stereo not given) | > 4 mM (inactive)
COC1C(O)C(O[C@H]2CC[C@]3(C=O)C4C(CC[C@]3(O)C2)[C@@]2(O)CC[C@H](C3=CC(=O)OC3)[C@@]2(C)C[C@H]4OC(C)=O)OC(C)C1OC(C)=O (stereo not given in full) | > 4 mM (inactive)
CN1CCN(c2ccc(N)cc2)CC1 | > 4 mM (inactive)
COC(=O)c1sccc1S(=O)(=O)N1CCCC1 | > 4 mM (inactive)
O=C1CCC([N+](=O)[O-])C(c2ccccc2F)N1 (stereo not given) | > 4 mM (inactive)

SMILES | Kd
COC(=O)c1cccc(C(F)(F)F)c1 | > 4 mM (inactive)
O=C(CS(=O)(=O)c1ccccc1)N1CCCCCC1 | > 4 mM (inactive)
CC(C)[C@@H]1CC[C@@H](C)C[C@H]1OC(=O)c1ccccc1 | > 4 mM (inactive)
O=C(Nc1ccc2ccccc2c1)c1cnccn1 | > 4 mM (inactive)
CC(=O)Oc1ccc(-c2nc(-c3cccnc3)no2)cc1 | > 4 mM (inactive)
CN(C)C(=S)Nc1ccc([N+](=O)[O-])cc1 | > 4 mM (inactive)
O=C(O)C1CC(=O)N(Cc2ccco2)C1 (stereo not given) | > 4 mM (inactive)
O=c1n(-c2ccccc2)c(=O)n2n1CCCC2 | > 4 mM (inactive)
CNC(=O)Nc1ccc(C(=O)NC)cc1 | > 4 mM (inactive)
COc1ccc(-c2cc(=O)c3c(OC)c(OC)c(OC)c(OC)c3o2)cc1OC | > 4 mM (inactive)
COC(=O)c1cn(C(=O)OC)c2ccccc12 | > 4 mM (inactive)
CNC(=O)c1ccc([N+](=O)[O-])cc1Cl | > 4 mM (inactive)
CC(=O)O[C@@H]1C[C@@]2(C)[C@H](c3ccoc3)C[C@H]3O[C@]32[C@]2(C)C(=O)C(O)=C3C(C)(C)C(=O)C=C[C@]3(C)C12 (stereo not given in full) | > 4 mM (inactive)
Cc1cccc(C)c1N1C(=O)CCC1=O | > 4 mM (inactive)
O=C(Nc1ccc(Cl)cc1)N1CCCC1 | > 4 mM (inactive)
c1ccc2[nH]c(CCn3cncn3)nc2c1 | > 4 mM (inactive)
CC(=O)c1cc(C)ccc1OC(=O)c1cccnc1 | > 4 mM (inactive)
CC(=O)N(C)Cc1nc2ccccc2n1C | > 4 mM (inactive)
NC(=O)COc1ccccc1O | > 4 mM (inactive)
COC(=O)c1cccc(Cn2nnc3ccccc3c2=O)c1 | > 4 mM (inactive)
Cc1onc(-c2c(F)cccc2Cl)c1C(N)=O | > 4 mM (inactive)
Cc1nnc(SCC(=O)NC2CCCC2)[nH]c1=O | > 4 mM (inactive)
O=C(O)CCC(=O)Nc1nccs1 | > 4 mM (inactive)
